Assay results from publication PMC5673977, “Transport Deficiency Is the Molecular Basis of Candida albicans Resistance to Antifungal Oligopeptides” (Frontiers in Microbiology, 2017).
Where a SMILES comes first, the peptide text is derived from it.

Key:
Format in all cases: cell-based, Candida albicans
C. albicans SC5314 = assay: Initial peptide uptake rate; settings: SC 5314; cells grown in YNB-SG; 50 mM potassium phosphate buffer (pH 5.0 or 6.5) + 1% glucose, 30°C, 100 μM peptide, residual peptide by TNBS A420, slope 0- to 10-min
Protocol: (§1) Yeast cells grown exponentially in the YNB-SG medium were harvested by centrifugation (3000 ×g, 5 min), washed with 50 mM potassium phosphate buffer (pH 5.0 or 6.5), and suspended in the same buffer containing 1% glucose, to a final cell density corresponding to A660 ≅ 1.0. The cell suspension was incubated at 30°C. After 10 min, an oligopeptide solution was added, to give a final concentration of 100 μM. At that moment and at 5 min intervals thereafter, 2 mL samples of the cell suspension were withdrawn, immediately filtered through the Whatman GF/A filters and the filtrates were used to determine the residual peptide concentration. Then, the 1 mL portions of the filtrates were taken and combined with 1.25 mL aliquots of a solution containing 4% Na2B4O7 × 10 H2O and 0.8 mg mL^-1 of 2,4,6-trinitrobenzenesulfonate. The reaction was carried out at 37°C for 30 min. The A420 values were measured and the peptide concentration was read from the appropriate standard curve. Data were plotted as nanomoles of an oligopeptide, taken up by 1 mg (dry weight) of cells versus time. The initial uptake velocities were determined from the slopes of the linear part of the curves, in the 0- to 10-min region.

C. albicans opt1Δ = assay: Initial peptide uptake rate; settings: 50 mM potassium phosphate buffer (pH 5.0 or 6.5) + 1% glucose, 30°C, 100 μM peptide, TNBS A420, slope 0- to 10-min
Protocol: as §1

[1] = system: C. albicans opt1–opt5Δ ptr2Δ ptr22Δ; assay: Initial peptide uptake rate; settings: 50 mM potassium phosphate buffer (pH 5.0 or 6.5) + 1% glucose, 30°C, 100 μM peptide, TNBS A420, slope 0- to 10-min
Protocol: as §1

C. albicans opt1–opt5Δ = assay: Initial peptide uptake rate; settings: 50 mM potassium phosphate buffer (pH 5.0 or 6.5) + 1% glucose, 30°C, 100 μM peptide, TNBS A420, slope 0- to 10-min
Protocol: as §1

C. albicans opt2Δ opt3Δ = assay: Initial peptide uptake rate; settings: 50 mM potassium phosphate buffer (pH 5.0 or 6.5) + 1% glucose, 30°C, 100 μM peptide, TNBS A420, slope 0- to 10-min
Protocol: as §1

C. albicans opt4Δ = assay: Initial peptide uptake rate; settings: 50 mM potassium phosphate buffer (pH 5.0 or 6.5) + 1% glucose, 30°C, 100 μM peptide, TNBS A420, slope 0- to 10-min
Protocol: as §1

C. albicans opt5Δ = assay: Initial peptide uptake rate; settings: 50 mM potassium phosphate buffer (pH 5.0 or 6.5) + 1% glucose, 30°C, 100 μM peptide, TNBS A420, slope 0- to 10-min
Protocol: as §1

C. albicans ptr2Δ ptr22Δ = assay: Initial peptide uptake rate; settings: 50 mM potassium phosphate buffer (pH 5.0 or 6.5) + 1% glucose, 30°C, 100 μM peptide, TNBS A420, slope 0- to 10-min
Protocol: as §1

[2] = system: C. albicans isolates NF1-3 and LNF1-3; assay: Initial peptide uptake rate by isolates resistant to F2/F3; settings: all six isolates NF1-3, LNF1-3; Figure 4
Protocol: as §1
It is therefore clear that the diminished sensitivity of all six isolates to F2 and F3 was due to the reduced uptake, most likely by permease(s) of the PTR system.

Compound	Uptake rate ± SD (C. albicans SC5314)	Uptake rate ± SD (C. albicans opt1Δ)	Uptake rate ± SD [1]	Uptake rate ± SD (C. albicans opt1–opt5Δ)	Uptake rate ± SD (C. albicans opt2Δ opt3Δ)	Uptake rate ± SD (C. albicans opt4Δ)	Uptake rate ± SD (C. albicans opt5Δ)	Uptake rate ± SD (C. albicans ptr2Δ ptr22Δ)	Initial uptake rate relative to wild type SC5314 cells [2]
Ala-Ala-Ala [(Ala)3, reference compound]	5.62 ± 0.33 nmol min^-1 (mg dry weight)^-1	4.89 ± 0.28 nmol min^-1 (mg dry weight)^-1	<0.1 nmol min^-1 (mg dry weight)^-1	4.99 ± 0.36 nmol min^-1 (mg dry weight)^-1	4.16 ± 0.22 nmol min^-1 (mg dry weight)^-1	3.22 ± 0.27 nmol min^-1 (mg dry weight)^-1	3.61 ± 0.30 nmol min^-1 (mg dry weight)^-1	<0.1 nmol min^-1 (mg dry weight)^-1	lower
CSCC[C@H](NC(=O)[C@@H](NC(=O)[C@@H]1CCCN1C(=O)[C@H](CC(C)C)NC(=O)[C@@H](N)CCCCN)C(C)C)C(=O)O [Peptide P5, Lys-Leu-Pro-Val-Met, reference compound] (H-KLPVM-OH)	2.66 ± 0.19 nmol min^-1 (mg dry weight)^-1	2.01 ± 0.16 nmol min^-1 (mg dry weight)^-1	0.15 ± 0.04 nmol min^-1 (mg dry weight)^-1	0.39 ± 0.07 nmol min^-1 (mg dry weight)^-1	0.52 ± 0.08 nmol min^-1 (mg dry weight)^-1	1.95 ± 0.13 nmol min^-1 (mg dry weight)^-1	1.82 ± 0.11 nmol min^-1 (mg dry weight)^-1	2.56 ± 0.18 nmol min^-1 (mg dry weight)^-1	
